Reference: ChEMBL document CHEMBL1201862, “PubChem BioAssay data set” (2004)
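Growth conditions: 96-well plates. Treatment: test compound, 48 hours, 5 concentrations. Analysis: linear interpolation between bracketing concentrations; unreached endpoints set to highest concentration. Abbreviation: GI50, concentration required for 50% inhibition of growth.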 Active and inactive are the calls of the source. No stated cut-off is given here; in the data, active = GI50 up to about 1.1 µM and inactive = higher.

Key:
Test in all cases: NCI-60 cell line screen, 48 h
MDA-MB-231 = tested on: MDA-MB-231
SK-MEL-28 = tested on: SK-MEL-28
NCI-H226 = tested on: NCI-H226
COLO 205 = tested on: COLO 205
SNB-19 = tested on: SNB-19
DU-145 = tested on: DU-145
RPMI-8226 = tested on: RPMI-8226
EKVX = tested on: EKVX
DMS-114 = tested on: DMS-114
SNB-75 = tested on: SNB-75
NCI-H23 = tested on: NCI-H23
SR = tested on: SR
MOLT-4 = tested on: MOLT-4
NCI-H460 = tested on: NCI-H460
T47D = tested on: T47D
A498 = tested on: A498
NCI-H522 = tested on: NCI-H522
SW-620 = tested on: SW-620
M14 = tested on: M14
SK-MEL-2 = tested on: SK-MEL-2

Measured: GI50

COc1cccc2c1C(=O)OC2c1cccc2ccccc12 (stereo not given)
inactive: MDA-MB-231 36.4 µM | SK-MEL-28 > 100 µM | NCI-H226 92.9 µM | COLO 205 > 100 µM | SNB-19 61.2 µM | DU-145 > 100 µM | RPMI-8226 > 100 µM | EKVX > 100 µM | DMS-114 > 100 µM | SNB-75 23.8 µM | NCI-H23 > 100 µM | SR > 100 µM | MOLT-4 > 100 µM | NCI-H460 98.9 µM | T47D > 100 µM | A498 > 52.5 µM | NCI-H522 > 100 µM | SW-620 > 100 µM | M14 > 100 µM | SK-MEL-2 > 100 µM
